Measurements from patent US12479847B2 (DANA-FARBER CANCER INSTITUTE, INC., priority 2019, dated 2025).

Experiments:
Experiment in all cases: KINOMEscan (ScanMAX) kinase profiling
Type in all cases: binding
panel of 468 kinases [1] = biological target: T1, panel of 468 kinases (Homo sapiens, UniProt P08581, Y1235D); conditions: MET(Y1235D); 1 μM; read-out: % control
T1 construct: purchased KINOMEscan (ScanMAX) service

panel of 468 kinases [2] = biological target: T2, panel of 468 kinases (Homo sapiens, UniProt P15056); conditions: BRAF; 1 μM; read-out: % control
T2 construct: purchased KINOMEscan (ScanMAX) service
T2 sequence (P15056 whole entry): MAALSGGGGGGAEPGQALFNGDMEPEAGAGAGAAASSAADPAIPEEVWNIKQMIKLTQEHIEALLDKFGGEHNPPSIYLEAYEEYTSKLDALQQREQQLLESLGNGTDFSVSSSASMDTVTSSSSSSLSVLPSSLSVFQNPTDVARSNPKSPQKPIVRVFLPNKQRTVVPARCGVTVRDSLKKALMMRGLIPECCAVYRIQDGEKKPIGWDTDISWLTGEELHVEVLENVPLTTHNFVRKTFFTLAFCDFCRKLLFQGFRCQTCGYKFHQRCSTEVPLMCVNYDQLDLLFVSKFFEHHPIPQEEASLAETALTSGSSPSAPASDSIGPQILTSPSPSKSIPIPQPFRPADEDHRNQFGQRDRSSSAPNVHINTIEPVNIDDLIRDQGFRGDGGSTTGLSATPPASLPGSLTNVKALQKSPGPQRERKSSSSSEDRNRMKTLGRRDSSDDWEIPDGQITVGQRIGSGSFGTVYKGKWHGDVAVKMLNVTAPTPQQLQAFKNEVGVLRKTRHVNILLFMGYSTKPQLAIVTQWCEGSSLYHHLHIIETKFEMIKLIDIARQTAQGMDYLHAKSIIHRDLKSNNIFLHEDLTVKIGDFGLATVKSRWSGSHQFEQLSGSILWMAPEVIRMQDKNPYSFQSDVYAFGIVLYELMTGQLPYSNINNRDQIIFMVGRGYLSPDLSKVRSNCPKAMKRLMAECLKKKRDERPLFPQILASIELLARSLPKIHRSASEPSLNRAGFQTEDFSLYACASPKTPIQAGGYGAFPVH

panel of 468 kinases [3] = biological target: T3, panel of 468 kinases (Homo sapiens, UniProt P46734); conditions: MEK3; 1 μM; read-out: % control
T3 construct: purchased KINOMEscan (ScanMAX) service
T3 sequence (P46734 1-347): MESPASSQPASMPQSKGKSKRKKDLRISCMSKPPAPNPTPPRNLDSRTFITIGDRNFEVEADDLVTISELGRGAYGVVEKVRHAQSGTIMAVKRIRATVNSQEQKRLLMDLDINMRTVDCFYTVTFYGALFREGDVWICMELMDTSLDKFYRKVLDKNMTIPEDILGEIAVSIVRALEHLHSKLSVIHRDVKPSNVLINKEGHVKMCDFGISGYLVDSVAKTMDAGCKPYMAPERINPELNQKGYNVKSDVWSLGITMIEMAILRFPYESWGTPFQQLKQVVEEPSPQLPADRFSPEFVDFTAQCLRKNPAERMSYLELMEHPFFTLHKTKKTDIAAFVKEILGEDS

panel of 468 kinases [4] = biological target: T4, panel of 468 kinases (Homo sapiens, UniProt P51451); conditions: BLK; 1 μM; read-out: % control
T4 construct: purchased KINOMEscan (ScanMAX) service
T4 sequence (P51451 whole entry): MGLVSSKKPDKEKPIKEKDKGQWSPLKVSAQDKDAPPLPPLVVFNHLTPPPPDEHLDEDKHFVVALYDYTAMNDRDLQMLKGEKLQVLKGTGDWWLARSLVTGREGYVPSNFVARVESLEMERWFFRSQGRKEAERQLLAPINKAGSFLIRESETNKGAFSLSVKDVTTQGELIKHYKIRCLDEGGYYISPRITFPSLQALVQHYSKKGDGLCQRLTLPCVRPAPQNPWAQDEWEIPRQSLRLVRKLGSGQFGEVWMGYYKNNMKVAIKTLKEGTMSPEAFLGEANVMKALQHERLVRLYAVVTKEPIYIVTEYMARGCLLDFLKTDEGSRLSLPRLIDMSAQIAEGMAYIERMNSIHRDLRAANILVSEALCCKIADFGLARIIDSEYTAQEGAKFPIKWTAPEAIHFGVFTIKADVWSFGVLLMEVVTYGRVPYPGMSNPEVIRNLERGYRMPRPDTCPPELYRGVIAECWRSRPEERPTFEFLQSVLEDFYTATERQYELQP

panel of 468 kinases [5] = biological target: T5, panel of 468 kinases (Homo sapiens, UniProt P78368); conditions: CSNK1G2; 1 μM; read-out: % control
T5 construct: purchased KINOMEscan (ScanMAX) service
T5 sequence (P78368 whole entry): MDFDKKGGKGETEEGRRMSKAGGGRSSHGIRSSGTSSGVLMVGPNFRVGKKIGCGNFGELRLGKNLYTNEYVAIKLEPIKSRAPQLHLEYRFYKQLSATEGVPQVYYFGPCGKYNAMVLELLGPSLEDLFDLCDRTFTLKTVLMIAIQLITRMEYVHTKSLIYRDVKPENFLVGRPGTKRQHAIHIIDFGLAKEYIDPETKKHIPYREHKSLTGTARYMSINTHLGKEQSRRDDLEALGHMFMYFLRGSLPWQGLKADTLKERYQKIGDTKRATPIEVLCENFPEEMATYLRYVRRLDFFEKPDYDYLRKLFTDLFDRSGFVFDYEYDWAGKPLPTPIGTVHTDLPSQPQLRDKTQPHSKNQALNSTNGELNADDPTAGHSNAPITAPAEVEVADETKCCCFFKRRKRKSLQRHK

panel of 468 kinases [6] = biological target: T6, panel of 468 kinases (Homo sapiens, UniProt Q09013); conditions: DMPK; 1 μM; read-out: % control
T6 construct: purchased KINOMEscan (ScanMAX) service
T6 sequence (Q09013 1-629): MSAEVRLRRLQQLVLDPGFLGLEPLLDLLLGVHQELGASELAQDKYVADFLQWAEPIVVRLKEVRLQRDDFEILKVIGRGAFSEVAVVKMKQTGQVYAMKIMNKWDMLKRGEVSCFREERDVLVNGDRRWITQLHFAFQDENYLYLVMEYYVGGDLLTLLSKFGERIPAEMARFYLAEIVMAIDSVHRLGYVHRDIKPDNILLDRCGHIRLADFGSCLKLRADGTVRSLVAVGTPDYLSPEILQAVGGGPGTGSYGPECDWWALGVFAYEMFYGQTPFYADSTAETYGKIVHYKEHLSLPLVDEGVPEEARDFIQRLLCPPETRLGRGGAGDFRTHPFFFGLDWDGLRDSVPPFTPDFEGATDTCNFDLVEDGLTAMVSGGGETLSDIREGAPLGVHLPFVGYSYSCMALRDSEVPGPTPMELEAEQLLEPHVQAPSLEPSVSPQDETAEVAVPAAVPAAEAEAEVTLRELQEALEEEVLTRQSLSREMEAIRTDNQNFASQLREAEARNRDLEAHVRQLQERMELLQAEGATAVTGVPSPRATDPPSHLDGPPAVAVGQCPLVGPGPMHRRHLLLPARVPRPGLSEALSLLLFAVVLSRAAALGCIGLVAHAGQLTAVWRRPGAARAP

panel of 468 kinases [7] = biological target: T7, panel of 468 kinases (Homo sapiens, UniProt Q7L7X3); conditions: TAOK1; 1 μM; read-out: % control
T7 construct: purchased KINOMEscan (ScanMAX) service
T7 sequence (Q7L7X3 1-1001): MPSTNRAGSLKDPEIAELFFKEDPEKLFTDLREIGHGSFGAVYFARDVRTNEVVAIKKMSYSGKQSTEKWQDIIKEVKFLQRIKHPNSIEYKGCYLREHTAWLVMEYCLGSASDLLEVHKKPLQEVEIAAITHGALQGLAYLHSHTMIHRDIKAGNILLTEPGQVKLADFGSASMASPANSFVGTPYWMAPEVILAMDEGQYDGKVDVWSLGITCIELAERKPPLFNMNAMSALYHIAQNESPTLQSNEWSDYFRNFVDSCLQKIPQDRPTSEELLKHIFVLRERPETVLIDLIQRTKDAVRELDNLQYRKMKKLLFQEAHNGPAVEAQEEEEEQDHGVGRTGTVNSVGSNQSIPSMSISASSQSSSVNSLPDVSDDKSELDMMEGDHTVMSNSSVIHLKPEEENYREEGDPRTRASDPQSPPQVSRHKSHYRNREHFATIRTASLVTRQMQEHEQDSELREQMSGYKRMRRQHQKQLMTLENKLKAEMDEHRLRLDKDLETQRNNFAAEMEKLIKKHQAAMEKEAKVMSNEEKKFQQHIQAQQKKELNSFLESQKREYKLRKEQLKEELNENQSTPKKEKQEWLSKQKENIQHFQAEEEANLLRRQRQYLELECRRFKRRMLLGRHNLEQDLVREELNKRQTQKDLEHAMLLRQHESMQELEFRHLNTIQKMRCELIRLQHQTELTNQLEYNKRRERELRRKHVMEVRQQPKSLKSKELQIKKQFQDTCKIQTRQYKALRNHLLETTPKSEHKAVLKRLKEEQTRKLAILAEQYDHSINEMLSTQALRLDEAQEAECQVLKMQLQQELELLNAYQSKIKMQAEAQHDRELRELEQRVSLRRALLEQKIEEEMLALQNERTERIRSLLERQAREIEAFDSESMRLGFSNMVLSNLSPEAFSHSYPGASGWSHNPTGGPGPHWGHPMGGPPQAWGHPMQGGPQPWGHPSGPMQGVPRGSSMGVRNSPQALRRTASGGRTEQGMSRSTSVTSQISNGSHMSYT

panel of 468 kinases [8] = biological target: T8, panel of 468 kinases (Homo sapiens, UniProt Q8IVW4); conditions: CDKL3; 1 μM; read-out: % control
T8 construct: purchased KINOMEscan (ScanMAX) service
T8 sequence (Q8IVW4 whole entry): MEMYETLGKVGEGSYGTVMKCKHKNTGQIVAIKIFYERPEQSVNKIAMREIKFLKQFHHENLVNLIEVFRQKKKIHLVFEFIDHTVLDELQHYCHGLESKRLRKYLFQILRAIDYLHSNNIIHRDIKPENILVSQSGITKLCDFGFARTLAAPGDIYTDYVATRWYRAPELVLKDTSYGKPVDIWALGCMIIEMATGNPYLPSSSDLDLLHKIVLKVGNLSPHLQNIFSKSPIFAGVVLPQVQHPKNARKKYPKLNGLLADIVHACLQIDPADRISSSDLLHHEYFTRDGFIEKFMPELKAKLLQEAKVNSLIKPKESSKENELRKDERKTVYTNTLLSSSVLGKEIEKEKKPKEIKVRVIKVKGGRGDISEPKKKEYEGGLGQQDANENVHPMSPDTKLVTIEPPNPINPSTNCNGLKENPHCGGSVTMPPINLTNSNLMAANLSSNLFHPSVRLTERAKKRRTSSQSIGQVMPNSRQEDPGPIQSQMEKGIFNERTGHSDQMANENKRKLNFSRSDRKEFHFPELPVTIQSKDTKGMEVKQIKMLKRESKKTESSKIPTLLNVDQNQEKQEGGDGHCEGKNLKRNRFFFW

panel of 468 kinases [9] = biological target: T9, panel of 468 kinases (Homo sapiens, UniProt Q9C098); conditions: DCAMKL3; 1 μM; read-out: % control
T9 construct: purchased KINOMEscan (ScanMAX) service
T9 sequence (Q9C098 whole entry): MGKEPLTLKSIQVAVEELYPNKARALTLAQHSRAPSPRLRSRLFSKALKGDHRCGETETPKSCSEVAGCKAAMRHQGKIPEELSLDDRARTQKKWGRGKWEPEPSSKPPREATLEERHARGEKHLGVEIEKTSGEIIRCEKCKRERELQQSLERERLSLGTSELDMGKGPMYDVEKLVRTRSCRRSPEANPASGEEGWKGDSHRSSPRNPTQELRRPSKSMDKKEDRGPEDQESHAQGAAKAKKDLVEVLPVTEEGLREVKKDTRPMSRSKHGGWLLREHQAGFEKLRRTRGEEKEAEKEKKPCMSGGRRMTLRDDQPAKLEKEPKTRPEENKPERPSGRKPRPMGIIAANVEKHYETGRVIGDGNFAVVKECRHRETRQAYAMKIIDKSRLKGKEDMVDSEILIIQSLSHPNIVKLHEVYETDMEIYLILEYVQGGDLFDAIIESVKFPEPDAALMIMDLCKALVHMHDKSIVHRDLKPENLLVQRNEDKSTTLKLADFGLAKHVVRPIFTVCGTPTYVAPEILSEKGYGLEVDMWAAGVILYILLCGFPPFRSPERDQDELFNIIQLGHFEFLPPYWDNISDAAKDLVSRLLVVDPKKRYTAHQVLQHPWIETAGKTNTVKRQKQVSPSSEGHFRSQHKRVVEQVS

panel of 468 kinases [10] = biological target: T10, panel of 468 kinases (Homo sapiens, UniProt Q9H422); conditions: HIPK3; 1 μM; read-out: % control
T10 construct: purchased KINOMEscan (ScanMAX) service
T10 sequence (Q9H422 whole entry): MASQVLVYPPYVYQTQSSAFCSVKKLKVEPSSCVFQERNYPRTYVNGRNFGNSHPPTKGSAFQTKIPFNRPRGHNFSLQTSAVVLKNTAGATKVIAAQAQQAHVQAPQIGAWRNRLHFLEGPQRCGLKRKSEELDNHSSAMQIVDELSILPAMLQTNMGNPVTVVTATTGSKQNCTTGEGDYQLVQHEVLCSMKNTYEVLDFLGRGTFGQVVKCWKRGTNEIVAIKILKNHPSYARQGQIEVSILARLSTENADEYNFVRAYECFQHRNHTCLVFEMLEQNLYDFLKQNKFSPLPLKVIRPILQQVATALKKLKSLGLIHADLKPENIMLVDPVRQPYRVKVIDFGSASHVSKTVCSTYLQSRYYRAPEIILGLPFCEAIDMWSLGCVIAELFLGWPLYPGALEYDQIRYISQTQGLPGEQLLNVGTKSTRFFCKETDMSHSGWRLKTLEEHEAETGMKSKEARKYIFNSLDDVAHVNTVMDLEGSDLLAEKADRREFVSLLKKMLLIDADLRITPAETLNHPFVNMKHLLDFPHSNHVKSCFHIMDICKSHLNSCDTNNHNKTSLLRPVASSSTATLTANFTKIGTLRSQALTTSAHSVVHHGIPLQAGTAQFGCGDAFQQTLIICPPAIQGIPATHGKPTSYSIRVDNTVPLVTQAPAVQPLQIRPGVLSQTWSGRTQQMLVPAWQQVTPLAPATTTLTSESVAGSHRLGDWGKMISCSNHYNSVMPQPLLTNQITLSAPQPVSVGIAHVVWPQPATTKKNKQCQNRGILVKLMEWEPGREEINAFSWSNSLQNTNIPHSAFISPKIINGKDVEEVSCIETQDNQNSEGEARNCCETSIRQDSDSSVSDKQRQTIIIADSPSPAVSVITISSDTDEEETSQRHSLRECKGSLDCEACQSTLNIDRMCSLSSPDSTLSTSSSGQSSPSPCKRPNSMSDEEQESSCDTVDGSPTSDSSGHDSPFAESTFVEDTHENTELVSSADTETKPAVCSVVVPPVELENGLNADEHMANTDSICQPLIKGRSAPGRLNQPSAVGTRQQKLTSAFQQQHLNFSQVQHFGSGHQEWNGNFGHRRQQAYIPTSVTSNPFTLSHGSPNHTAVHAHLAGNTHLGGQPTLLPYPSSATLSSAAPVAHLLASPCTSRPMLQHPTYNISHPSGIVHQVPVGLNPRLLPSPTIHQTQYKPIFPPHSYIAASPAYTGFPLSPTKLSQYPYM

Row | SMILES | remaining binding at 1 µM (panel of 468 kinases [1]) | remaining binding at 1 µM (panel of 468 kinases [2]) | remaining binding at 1 µM (panel of 468 kinases [3]) | remaining binding at 1 µM (panel of 468 kinases [4]) | remaining binding at 1 µM (panel of 468 kinases [5]) | remaining binding at 1 µM (panel of 468 kinases [6]) | remaining binding at 1 µM (panel of 468 kinases [7]) | remaining binding at 1 µM (panel of 468 kinases [8]) | remaining binding at 1 µM (panel of 468 kinases [9]) | remaining binding at 1 µM (panel of 468 kinases [10])
1 | CNc1nc(Nc2ccc(S(=O)(=O)N3CCC(N4CCOCC4)CC3)cc2OC)nc2[nH]cc(Cl)c12 [Compound 12, 5-chloro-N2-(2-methoxy-4-((4-morpholinopiperidin-1-yl)sulfonyl)phenyl)-N4-methyl-7H-pyrrolo[2,3-d]pyrimidine-2,4-diamine] | 100% | 93% | 26% | 100% | 63% | 97% | 81% | 100% | 100% | 72%
2 | CNc1nc(Nc2ccc(C(=O)N3CCC(N4CCOCC4)CC3)c3c2OCO3)nc2[nH]cc(Cl)c12 [Compound 75, (7-((5-chloro-4-(methylamino)-7H-pyrrolo[2,3-d]pyrimidin-2-yl)amino)benzo[d][1,3]dioxol-4-yl)(4-morpholinopiperidin-1-yl)methanone] | 100% | 100% | 2.4% | 100% | 2.9% | 100% | 81% | 100% | 100% | 59%
3 | CNc1nc(Nc2ccc(P3(=O)CCN(C4CCOCC4)CC3)cc2OC)nc2[nH]cc(Cl)c12 [Compound 77, 4-(4-((5-chloro-4-(methylamino)-7H-pyrrolo[2,3-d]pyrimidin-2-yl)amino)-3-methoxyphenyl)-1-(tetrahydro-2H-pyran-4-yl)-1,4-azaphosphinane 4-oxide] | 100% | 97% | 9.4% | 100% | 96% | 100% | 82% | 100% | 100% | 64%
